The test system of assay [1] is pigs with autologous nucleus pulposus applied to the sacrococcygeal cauda equina. The experiment in a line: Example 6: nerve conduction velocity 3 days after application of nucleus pulposus mixed with inhibitors. The format is in vivo. The settings on record: pig; inhibitor mixed with NP before application (100 µg antibody each, 2 mg doxycycline). On the procedure:
Fourteen pigs, (body weight 25-30 kg) received an intramuscular injection of 20 mg/kg body weight of KETALAR® (ketamine 50 mg/ml, Parke-Davis, Morris Plains, N.J.) and an intravenous injection of 4 mg/kg body weight of HYPNODIL® (methomidate chloride 50 mg/ml, AB Leo, Helsingborg, Sweden) and 0.1 mg/kg body weight of STRESNIL® (azaperon 2 mg/ml, Janssen Pharmaceutica, Beerse, Belgium). Anesthesia was maintained by additional intravenous injections of 2 mg/kg body weight of HYPNODIL® and 0.05 mg/kg body weight of STRESNIL®. The pigs also received an intravenous injection of 0.1 mg/kg of STESOLID NOVUM® (Diazepam, Dumex, Helsingborg) after surgery.
Nucleus pulposus was harvested from the 5th lumbar disc through a retroperitoneal approach. […]
Three days after the application, the pigs were reanaesthetized by an intramuscular injection of 20 mg/kg body weight of KETALAR® and an intravenous injection of 35 mg/kg body weight of PENTOTHAL® (Thiopental sodium, Abbott lab, Chicago, Ill.). […] Local tissue temperature was continuously monitored and maintained at 37.538.0. degree. […]
The person performing the neurophysiologic analyzes was unaware of the experimental protocol for the individual animal, and after finishing the complete study the data were arranged in the three experimental groups and statistical differences between the groups were assessed by Student's t-test. […]

For assay [2], the system named is nucleus pulposus-induced nerve root injury. The note with it: previous publications; cited from earlier work.
Assay [3] relates to pigs with autologous nucleus pulposus placed onto the sacrococcygeal cauda equina. As to the kind of experiment: Series-3: nerve root conduction velocity 7 days after nucleus pulposus application, systemic TNF inhibitors. The format is in vivo, pig. The settings on record: for Effect on nucleus pulposus induced nerve injury: 7 days, systemic treatment; for NCV (m/s +/− SD): pig, 7 days after NP application, infliximab 100 mg i.v. preoperatively, etanercept 12.5 mg s.c. twice. The protocol: Series-3: Thirteen pigs had autologous nucleus pulposus placed onto their sacrococcygeal cauda equina similar to series-2. Five pigs (body weight 25 kg) received REMICADE® (infliximab) 100 mg i.v. preoperatively, and 8 pigs received ENBREL® (etanercept) 12.5 mg s.c. preoperatively and additionally 12.5 mg s.c. three days after the operation. Seven days after the nucleus pulposus-application the nerve root conduction velocity was determined over the application zone by local electrical stimulation according to series-2. Thirteen pigs had autologous nucleus pulposus placed onto their sacrococcygeal cauda equina similar to series-2. Five pigs (bodyweight 25 kg) received the human/murine monoclonal antibody, REMICADE® (infliximab, […]) 100 mg i.v. preoperatively, and 8 pigs received ENBREL® (etanercept, Centocor B.V., Leiden, the Netherlands) 12.5 mg s.c. preoperatively and additionally 12.5 mg s.c. three days after the operation. Seven days after the nucleus pulposus-application the nerve root conduction velocity was determined over the application zone by local electrical stimulation according to series-2. […] No non-treated animals were included in the series-3 due to the pre-existing knowledge of nerve conduction velocity after seven days of either nucleus pulposus or fat (control) application. The statistical difference between the groups, infliximab, and etanercept, nucleus pulposus without treatment (positive control from previous data) and application of retroperitoneal fat (negative control from previous data) was assessed by using ANOVA and Fisher's PLSD at 5%.

Consider `C[C@H]1c2cccc(O)c2C(=O)C2=C(O)[C@]3(O)C(=O)C(C(N)=O)=C(O)[C@@H](N(C)C)[C@@H]3[C@@H](O)[C@@H]21` [Doxycycline, doxycycline], for which the “Nerve conduction velocity (m/s) 3 days after application” value in assay [1] is 53 +/− 22 m/s. For the compound `COc1ccc2c(c1)c(CC(=O)O)c(C)n2C(=O)c1ccc(Cl)cc1` [indomethacin], the “Block of nucleus pulposus-related effects” value (“Block” below) in assay [2] is reported as “slightly less efficiently”. As for `CCN(CC)CC(=O)Nc1c(C)cccc1C` [lidocaine], the “Block” value in assay [2] is given as “slightly less efficiently”. As for cyclosporin A, the “Block” value in assay [2] is “blocked efficiently”. Consider etanercept [ENBREL ®], for which, in assay [3], the “Effect on nucleus pulposus induced nerve injury” value is given as “blocked the nucleus pulposus induced nerve injury efficiently” and the “NCV (m/s +/− SD)” value is 78 +/− 14 m/s.

Take infliximab [REMICADE ®]: in assay [3], the “Effect on nucleus pulposus induced nerve injury” value is listed as “blocked the nucleus pulposus induced nerve injury efficiently” and the “NCV (m/s +/− SD)” value was 79 +/− 15 m/s.

These data come from US8057792B2, “Use of an antibody that blocks TNF-alpha activity for treating a nerve disorder mediated by nucleus pulposus” (Sciaticon AB, priority 1998, dated 2011).
